Data from patent US20150065343A1, “Acrylamide compounds for combating invertebrate pests” (priority 2012, published 2015).

How the values were obtained:
Format in all cases: in vivo
[1] = tested on: Orchid thrips (dichromothrips corbetti); assay: B.5 Orchid thrips floral-immersion test; details: 96 h, adult thrips, after 4 days, read-out: mortality in comparison with untreated controls
Protocol: B.5 Orchid thrips (dichromothrips corbetti)
Dichromothaps corbetti adults used for bioassay were obtained from a colony maintained continuously under laboratory conditions. For testing purposes, the test compound was diluted to a concentration of 500 ppm (wt compound: vol diluent) in a 1:1 mixture of acetone:water (vol:vol), plus 0.01% vol/vol Kinetic® surfactant.
Thrips potency of each compound was evaluated by using a floral-immersion technique. Plastic petri dishes were used as test arenas. All petals of individual, intact orchid flowers were dipped into treatment solution and allowed to dry. Treated flowers were placed into individual petri dishes along with 10-15 adult thrips. The petri dishes were then covered with lids. All test arenas were held under continuous light and a temperature of about 28° C. for duration of the assay. After 4 days, the numbers of live thrips were counted on each flower, and along inner walls of each petri dish. The level of thrips mortality was extrapolated from pre-treatment thrips numbers.

[2] = tested on: Silverleaf whitefly (bernisia argentifolii); assay: B.6 Silverleaf whitefly spray test on cotton plants; details: Bemisia argentifolii, 72 h, sprayed cotton plants, whitefly adults, 3 days after treatment, read-out: mortality in comparison with untreated controls
Excerpt: B.6 Silverleaf whitefly (bernisia argentifolii)
(§1) The active compounds were formulated in cyclohexanone as a 10,000 ppm solution supplied in tubes. The tubes were inserted into an automated electrostatic sprayer equipped with an atomizing nozzle and they served as stock solutions for which lower dilutions were made in 50% acetone:50% water (v/v). A nonionic surfactant (Kinetic®) was included in the solution at a volume of 0.01% (v/v).
Cotton plants at the cotyledon stage (one plant per pot) were sprayed by an automated electrostatic plant sprayer equipped with an atomizing spray nozzle. The plants were dried in the sprayer fume hood and then removed from the sprayer. Each pot was placed into a plastic cup and about 10 to 12 whitefly adults (approximately 3-5 days old) were introduced. The insects were collected using an aspirator and a nontoxic Tygon® tubing connected to a barrier pipette tip. The tip, containing the collected insects, was then gently inserted into the soil containing the treated plant, allowing insects to crawl out of the tip to reach the foliage for feeding. Cups were covered with a reusable screened lid. […] Mortality was assessed 3 days after treatment, compared to untreated control plants.

[3] = tested on: Southern armyworm (Spodoptera eridania); assay: B.7 Southern armyworm spray test on lima bean plants; details: foliar, 96 h, sprayed lima bean foliage, armyworm larvae, 4 days after treatment, read-out: mortality in comparison with untreated controls
Protocol: B.7 Southern armyworm (Spodoptera eridania)
as §1
Lima bean plants (variety Sieva) were grown 2 plants to a pot and selected for treatment at the 1st true leaf stage. Test solutions were sprayed onto the foliage by an automated electrostatic plant sprayer equipped with an atomizing spray nozzle. The plants were dried in the sprayer fume hood and then removed from the sprayer. Each pot was placed into perforated plastic bags with a zip closure. About 10 to 11 armyworm larvae were placed into the bag and the bags zipped closed. Test plants were maintained in a growth room at about 25° C. and about 20-40% relative humidity for 4 days, avoiding direct exposure to fluorescent light (24 hour photoperiod) to prevent trapping of heat inside the bags. Mortality and reduced feeding were assessed 4 days after treatment, compared to untreated control plants.

[4] = tested on: Diamond back moth (Plutella xylostella); assay: B.2 Diamond back moth leaf-dip test on Chinese cabbage; details: dipped Chinese cabbage leaves, mortality recorded 24, 72 and 120 hours after treatment, read-out: mortality in comparison with untreated controls
Protocol: B.2 Diamond back moth (Plutella xylostella)
Leaves of Chinese cabbage were dipped in test solution and air-dried. Treated leaves were placed in petri dished lined with moist filter paper. Mortality was recorded 24, 72, and 120 hours after treatment.

[5] = tested on: Vetch aphid (Megoura viciae); assay: B.8 Vetch aphid test on broad bean leaf disks in 24-well plates; details: foliar, 120 h, sprayed onto leaf disks at 2.5 μl, adult aphids, 5 days, read-out: mortality in comparison with untreated controls
Protocol: B.8 Vetch aphid (Megoura viciae)
For evaluating control of vetch aphid (Megoura viciae) through contact or systemic means the test unit consisted of 24-well-microtiter plates containing broad bean leaf disks.
The compounds were formulated using a solution containing 75% v/v water and 25% v/v DMSO. Different concentrations of formulated compounds were sprayed onto the leaf disks at 2.5 μl, using a custom built micro atomizer, at two replications.
After application, the leaf disks were air-dried and 5-8 adult aphids placed on the leaf disks inside the microtiter plate wells. The aphids were then allowed to suck on the treated leaf disks and incubated at about 23±1° C. and about 50±5% relative humidity for 5 days. Aphid mortality and fecundity was then visually assessed.

[6] = tested on: Mediterranean fruitfly (Ceratitis capitata); assay: B.4 Mediterranean fruitfly microtiter plate test on insect diet with eggs; details: 120 h, sprayed onto insect diet at 5 μl, egg and larval mortality after 5 days, read-out: mortality in comparison with untreated controls
Protocol: B.4 Mediterranean fruitfly (Ceratitis capitata)
For evaluating control of Mediterranean fruitfly (Ceratitis capitata) the test unit consisted of microtiter plates containing an insect diet and 50-80 C. capitate eggs.
The compounds were formulated using a solution containing 75% v/v water and 25% v/v DMSO. Different concentrations of formulated compounds were sprayed onto the insect diet at 5 μl, using a custom built micro atomizer, at two replications.
(§2) After application, microtiter plates were incubated at about 28±1° C. and about 80±5% relative humidity for 5 days. Egg and larval mortality was then visually assessed.

[7] = tested on: Green peach aphid (Myzus persicae); assay: B.3 Green peach aphid systemic test, artificial diet in 96-well plates; details: 72 h, adult aphids, 3 days, read-out: mortality in comparison with untreated controls
Excerpt: B.3 Green peach aphid (Myzus persicae)
For evaluating control of green peach aphid (Myzus persicae) through systemic means the test unit consisted of 96-well-microtiter plates containing liquid artificial diet under an artificial membrane.
The compounds were formulated using a solution containing 75% v/v water and 25% v/v DMSO. Different concentrations of formulated compounds were pipetted into the aphid diet, using a custom built pipetter, at two replications.
After application, 5-8 adult aphids were placed on the artificial membrane inside the microtiter plate wells. The aphids were then allowed to suck on the treated aphid diet and incubated at about 23+1° C. and about 50+5% relative humidity for 3 days. Aphid mortality and fecundity was then visually assessed.

[8] = tested on: Boll weevil (Anthonomus grandis); assay: B.10 Boll weevil microtiter plate test on insect diet with eggs; details: 120 h, sprayed onto insect diet at 20 μl, egg and larval mortality after 5 days, read-out: mortality in comparison with untreated controls
Protocol: B.10 Boll weevil (Anthonomus grandis)
For evaluating control of boll weevil (Anthonomus grandis) the test unit consisted of 24-well-microtiter plates containing an insect diet and 20-30 A. grandis eggs.
The compounds were formulated using a solution containing 75% v/v water and 25% v/v DMSO. Different concentrations of formulated compounds were sprayed onto the insect diet at 20 μl, using a custom built micro atomizer, at two replications.
After application, microtiter plates were incubated at about 23±1° C. and about 50±5% relative humidity for 5 days. Egg and larval mortality was then visually assessed.

[9] = tested on: Tobacco budworm (Heliothis virescens); assay: B.9 Tobacco budworm microtiter plate test on insect diet with eggs; details: 120 h, sprayed onto insect diet at 10 μl, egg and larval mortality after 5 days, read-out: mortality in comparison with untreated controls
Protocol: B.9 Tobacco budworm (Heliothis virescens) HELVI
For evaluating control of tobacco budworm (Heliothis virescens) the test unit consisted of 96-well-microtiter plates containing an insect diet and 15-25 H. virescens eggs.
The compounds were formulated using a solution containing 75% v/v water and 25% v/v DMSO. Different concentrations of formulated compounds were sprayed onto the insect diet at 10 μl, using a custom built micro atomizer, at two replications.
as §2

CNC(=O)N/N=C/c1sc(/C=C/C(=O)NC(c2cccc(C(F)(F)F)c2)C(F)(F)F)cc1C (centres unmarked) [Compound 1-1, (E)-3-[4-methyl-5-[(E)-(methylcarbamoylhydrazono)methyl]-2-thienyl]-N-[2,2,2-trifluoro-1-[3-(trifluoromethyl)phenyl]ethyl]prop-2-enamide]
≥ 75%: mortality at 500 ppm [1] | mortality at 300 ppm [2] | mortality at 300 ppm [3] | mortality at 500 ppm [4] | mortality at 2500 ppm [5] | mortality at 2500 ppm [6] | mortality at 2500 ppm [7] | mortality at 2500 ppm [8] | mortality at 2500 ppm [9]

Cc1cc(/C=C/C(=O)NC(c2cccc(C(F)(F)F)c2)C(F)(F)F)sc1C(=O)NC1CC1 (centres unmarked) [Compound 2-1, N-cyclopropyl-3-methyl-5-[(E)-3-oxo-3-[[2,2,2-trifluoro-1-[3-(trifluoromethyl)phenyl]-ethyl]amino]prop-1-enyl]thiophene-2-carboxamide]
≥ 75%: mortality at 500 ppm [1] | mortality at 300 ppm [3] | mortality at 500 ppm [4] | mortality at 2500 ppm [5] | mortality at 2500 ppm [6] | mortality at 2500 ppm [7] | mortality at 2500 ppm [8] | mortality at 2500 ppm [9]

CCN(Cc1sc(/C=C/C(=O)NC(c2cccc(C(F)(F)F)c2)C(F)(F)F)cc1C)C(=O)CS(C)(=O)=O (centres unmarked) [Compound 3-1, (E)-3-[5-[[Ethyl-(2-methylsulfonylacetyl)amino]methyl]-4-methyl-2-thienyl]-N-[2,2,2-trifluoro-1-[3-(trifluoromethyl)phenyl]ethyl]prop-2-enamide]
≥ 75%: mortality at 500 ppm [1] | mortality at 300 ppm [3] | mortality at 2500 ppm [7] | mortality at 2500 ppm [8]

CSCC(=O)NCc1sc(/C=C/C(=O)NC(c2cccc(C(F)(F)F)c2)C(F)(F)F)cc1C (centres unmarked) [Compound 3-6, (E)-3-[4-Methyl-5-[[(2-methylsulfanylacetyl)amino]methyl]-2-thienyl]-N-[2,2,2-trifluoro-1-[3-(trifluoromethyl)phenyl]ethyl]prop-2-enamide]
≥ 75%: mortality at 500 ppm [1] | mortality at 2500 ppm [7] | mortality at 2500 ppm [8]

Cc1sc(/C=C/C(=O)NC(c2cccc(C(F)(F)F)c2)C(F)(F)F)cc1C(=O)NC1CC1 (centres unmarked) [Compound 4-1, N-Cyclopropyl-2-methyl-5-[(E)-3-oxo-3-[[2,2,2-trifluoro-1-[3-(trifluoromethyl)phenyl]-ethyl]amino]prop-1-enyl]thiophene-3-carboxamide]
≥ 75%: mortality at 300 ppm [2] | mortality at 300 ppm [3] | mortality at 2500 ppm [6] | mortality at 2500 ppm [7] | mortality at 2500 ppm [8]
